Results taken from patent US20150133373A1, “TRANSMUCOSAL DELIVERY OF ENGINEERED POLYPEPTIDES” (priority 2012, published 2015).

Legend:
[1] = PK profile, food intake and body weight after a single subcutaneous dose in normal HSD rats; type: in vivo, rat; settings: 25 nmol/kg subcutaneous
Description: Blood was collected via tail bleed at t=1 hour, 3 hours, 6 hours, 24 hours, 48 hours, 72 hours, 96 hours and 168 hours from fed HSD male rats. Food and body weights were measured daily. […] Points represent mean±sd.
Pharmacokinetic profile and biological activity of an exemplary engineered polypeptide subcutaneously dosed in normal Harlan Sprague-Dawley (HSD) rats is presented. […] Blood was collected via tail bleed at t=1 hour, 3 hours, 6 hours, 24 hours, 48 hours, 72 hours, 96 hours and 168 hours from fed HSD male rats. Food and body weights were measured daily. […] Points represent mean±sd. In the figures, vehicle is solid square, Cmpd 2-11 is open inverted triangle and Cmpd 2-9 is closed triangle. The plasma maximal concentration in FIG. 18C is equivalent to about 25,000 picomolar.

C57BL6 female mice = assay: Kidney vacuolization (cytoplasmic vacuolation of renal cortical tubular epithelial cells); type: in vivo, mouse; settings: Example 14; sc injection on days 0-6, kidneys on day 7
Description: (§1) With some drugs, such as some pegylated proteins, undesirable vacuoles can form in cytoplasm of epithelial cells lining the proximal convoluted tubules, which is an undesirable toxicity measure. […] C57BL6 female mice (n=2 cages, 3 mice/cage) were weighed daily 3 hours prior to lights out Immediately after weighing, on days 0-6 mice were injected subcutaneously with test compound. Mice were sacrificed on day 7 and kidneys submitted for histopathology. […] A positive control compound known to cause vacuole formation was scored as 3. The ABD polypeptide itself scored 0.
as §1, with “3.” for “3. The ABD polypeptide itself scored 0.”

[2] = Stability in human plasma; type: in vitro ADME; settings: 10 μg/ml in human plasma, 37 degrees C, 5 hours; normalized to a standard (100%)
diabetic ob/ob mice = assay: Chronic (28 days) treatment of diabetic ob/ob mice: glucose, HbA1c, body weight; type: in vivo, mouse
Description: The time course of the effect of the test compound on body weight, glucose lowering and HbA1c lowering in ob/ob mice was investigated post dose, with values at 4 weeks presented in FIGS. 11A, 11B, 11C and 11D. […] Points represent mean±s.d. (standard deviation). Each test compound was injected IP on day=0 immediately following baseline sample collection in non-fasted male ob/ob mice. […] Unless indicated otherwise, blood glucose measures described herein employed a OneTouch® Ultra® device (LifeScan, Inc. Miliptas, Calif.).

ob/ob mice = assay: Body weight, glucose and HbA1c in ob/ob mice after a single sc dose; type: in vivo, mouse; settings: single sc injection, non-fasted male ob/ob mice; Cmpd 15 at 250 nmol/kg
Description: Changes in glucose (% pre-treatment) and in HbA1c (% pre-treatment) are depicted in FIGS. 5B-5C. Points represent mean±s.d. (standard deviation). […] Unless indicated otherwise, blood glucose measures described herein employed a OneTouch® Ultra® device (LifeScan, Inc. Miliptas, Calif.).

db/db mice = assay: Oral (gavage) delivery, blood glucose lowering in diabetic db/db mice; type: in vivo, mouse; settings: 240 nmol/kg peroral by gavage in PBS/propylene glycol (50:50); 2-hour fasted db/db mice; to 120 minutes
NIH/Swiss mice = assay: OGTT DOA (oral glucose tolerance test for duration of action) in NIH/Swiss mice; type: in vivo, mouse; settings: Table 6; 25 nmol/kg IP at t=−1 day; blood glucose at 30 min after glucose gavage ([…]); 4 hr fasted NIH/Swiss female mice
Sprague Dawley rats = assay: IVGTT DOA in HSD fed anesthetized rats 5 days post dose; type: in vivo, rat; settings: 240 nmol/kg
Description: In vivo assays for activity and duration of action and pharmacokinetics can be done using known methods. For example, duration can be performed using an oral glucose tolerance test (OGTT) in which the drug is administered to the subject at a desired time point before the glucose is administered orally (to measure drug duration of action; OGTT DOA) and glucose blood levels are measured (e.g. readily done in mice). Activity and duration can also be measured using an intravenous glucose tolerance test (IVGTT) in which the drug is administered to the subject at a desired time point before the glucose is administered IV (IVGTT DOA) and blood glucose levels are measured (e.g. can readily be done in rats). Preferred engineered compounds have a desired effect on blood glucose of at least 24 hours duration after a single dose of drug, preferably at least 3 days, at least 4 days, at least 5 days, at least 6 days, and at least 1 week after the single dose of drug is given.
The time course of plasma glucose after IVGTT is depicted in FIG. 4A. Integrated (AUC0-60) glucose levels are depicted in the histogram of FIG. 4B. The time course of the change in insulin levels in the test subjects was depicted in FIG. 4C. The integrated insulin levels (AUC0-30) are depicted in FIG. 4D. The time course of body weight change (% change from baseline) is depicted for the test subjects in FIG. 4E. […]

[3] = 25 and 250 nmol/kg IP twice each week for 28 days

HGEGTFTSDLSKQLEEEAVRLFIEWLKQGGPSKEIISTGGGGSASLAEAKVLANRELDKYGVSDFYKRLINKAKTVEGVEALKLHILAALP [Cmpd 15]
apparent half-life [1]: 54 h | Severity score for cytoplasmic vacuolation of renal cortical tubular epithelial cells (C57BL6 female mice): 0 | Percent Stable in Human Plasma [2]: 96.0% | glycemic and body weight loss effects compared to the maximally efficacious dose of exendin-4 (in words) (diabetic ob/ob mice; 25 nmol/kg biw IP vs exendin-4 ~[…] CSI, 28 days): exceeded | effect compared to the maximally efficacious dose of exendin-4 (in words) (diabetic ob/ob mice; 250 nmol/kg biw IP, 28 days): significantly greater than the maximally efficacious dose of exendin-4 | HbA1c lowering (in words) (diabetic ob/ob mice; [3]): significant HbA1c lowering | body weight loss (in words) (diabetic ob/ob mice; [3]): significant body weight loss | HbA1c lowering and body weight loss compared to liraglutide (in words) (diabetic ob/ob mice; equimolar dosing to liraglutide, data not shown): more effective than liraglutide | glucose lowering upon chronic exposure compared to liraglutide (in words) (diabetic ob/ob mice; equimolar dosing, twice weekly (BIW), ob/ob mice): superior to liraglutide | body weight in ob/ob mice (in words) (ob/ob mice): significant body weight loss | activity after oral dosing (blood glucose, in words) (db/db mice): active when dosed orally | % Glucose Lowering Compared to Vehicle (NIH/Swiss mice): −21% | time after administration at which drug activity is present (IVGTT DOA) (Sprague Dawley rats): at least 5 days
